Among the data in patent US7410971B2, “1,2-di(cyclic)substituted benzene compounds” (Eisai R&D Management Co., Ltd., priority 2003, dated 2008) are IC50 and inhibition in vivo values, retold here.

As a reminder, the IC50 is the point on the concentration scale where inhibition reaches its midpoint. Lower therefore signals greater potency in that assay.

The test system of one experiment is Jurkat cells. Nature of the experiment: Jurkat cell adhesion system (adhesion to immobilized human fibronectin, PMA-stimulated). The following applies: concentration inhibiting by 50% the PMA-stimulated increase in number of adhered Jurkat cells on human fibronectin. It is filed as cell-based. The procedure:
Evaluation of Compounds in Jurkat Cell Adhesion System
<Immobilization of Human Fibronectin in 96-Well Plate>
Human fibronectin (Becton Dickinson Biosciences) was diluted with phosphate-buffered saline (hereinafter abbreviated as PBS; Sigma) to 0.1-0.01 μg/ml, and the diluted solution was added to a 96-well plate (Becton Dickinson) at 50μ/well, and allowed to stand overnight at 4° C. On the following day, the supernatant was removed from the plate, and then PBS containing 1% bovine serum albumin (hereinafter abbreviated as BSA; Sigma) was added thereto at 100 μl/well and incubation was performed at 37° C. for 2 hours in a CO2 incubator (Hirasawa).
The supernatant was removed from each plate and Jurkat cells suspended in RPMI-1640 (Sigma) containing 1 mg/ml BSA were added at 80 μl/well for 2.5×10^5 cells/well. The compound diluted to different concentrations with RPMI-1640 containing 1 mg/ml BSA was immediately added at 10 μl/well, and then 100 nM phorbol myristate acetate (hereinafter abbreviated as PMA; Sigma) in RPMI-1640 containing 1 mg/ml BSA was added at 10 μl/well and the plate was incubated in a CO2 incubator at 37° C. for 45-60 minutes. The supernatant was removed from the plate and each well was washed several times with 100 μl/well of RPMI-1640, after which 50 mM citrate buffer (pH 5.0) containing 3.75 mM p-nitrophenol-N-acetyl-β-D-glucosaminide (Sigma) and 0.25% Triton X-100 (Sigma) were added at 60 μl/well, and the mixture was placed in a CO2 incubator and incubated at 37° C. for 45 minutes. After incubation, 50 mM glycine buffer (pH 10.4) containing 5 mM EDTA was added at 90 μl/well, and the absorbance at 405 nm was measured with an EL340 Automated Microplate Reader (BIO-TEK) to determine the adhered cell count. The concentration of each compound which inhibited the increase in the number of adhered cells by the PMA-stimulation by 50% was recorded as the IC50 (μM).

In experiment [1] the test system is colon-infiltrating neutrophils (myeloperoxidase enzyme activity). Nature of the experiment: Oxazolone-induced colon neutrophil infiltration model. The following applies: Mus musculus, po, 30 mg/kg orally 30 minutes prior to intrarectal oxazolone, colon myeloperoxidase activity 4 hours after, vs oxazolone control group, read-out: Inhibitory rate (%). The class given is in vivo, Balb/c mice. As to the method: Evaluation of Compounds in Oxazolone-Induced Colon Neutrophil Infiltration Model
<Sensitization with Oxazolone>
Five- to six-week-old male Balb/c mice (Charles River Japan) were shaven at the abdomen to an approximately 2 cm square area. A 100% ethanol solution containing 3% 4-ethoxymethylene-2-phenyl-2-oxazolin-5-one (hereinafter referred to as “oxazolone”; Sigma) was applied at 150 μl onto the abdomen of each mouse.
<Preparation of Emulsion Containing Oxazolone>
Distilled water (Otsuka Pharmaceutical) was added in an equivalent volume to 100% peanut oil (Kanto Kagaku) containing 1% oxazolone, and the components were vigorously mixed with a glass syringe (Top Co.), to prepare an emulsion containing 0.5% oxazolone.
<Induction with Oxazolone>
The mice were fasted on the 3rd day after oxazolone sensitization, and were injected with 100 μl of the emulsion containing 0.5% oxazolone prepared in the way described above intrarectally at a site approximately 3 cm from the anus under ether anesthesia on the 4th day.
<Colon-Infiltrating Neutrophil Assay>
Each compound was suspended or dissolved in an aqueous solution containing 0.5% methyl cellulose (Wako), and orally administered at 30 mg/kg 30 minutes prior to the intrarectal injection of oxazolone emulsion. Four hours after the intrarectal injection of oxazolone, mice were sacrificed by cervical dislocation, and colons were extirpated, dissected in the longitudinal direction, washed with physiological saline, and transferred to ice-cooled plastic centrifugation tubes. After adding 1 ml of 50 mM potassium phosphate buffer (hereinafter abbreviated as KPB) (pH 6.0) to the tube, and the tissue were homogenized with PHYSCOTRON (Microtec Nition Co., Ltd.), 2 ml of 50 mM KPB (pH 6.0) was added and the mixture was centrifuged at 3000 rpm, 4° C. for 10 minutes and the supernatant was removed. To the resultant precipitate was added 1 ml of 50 mM KPB (pH 6.0) containing 0.5% hexadecyltrimethyl-ammonium bromide (Sigma), and freeze-thawed 3 to 5 times using liquid nitrogen and hot water, centrifuged at 3000 rpm, 4° C. for 10 minutes to yield a supernatant. The myeloperoxidase enzyme activity in the supernatant was assayed in the following manner. Specifically, to 10 μl of the obtained supernatant was added 200 μl of 50 mM KPB (pH6.0) containing 0.017% o-dianisidine (Sigma) and 0.0005% hydrogen peroxide (Wako), incubated at 37° C., and the change in absorbance at 450 nm was continuously measured for 1 minute using an EL340 Automated Microplate Reader (BIO-TEK) in kinetic mode. The units were the rate of change in absorbance per minute (mO.D./min.). With regard to the effect of each compound, the inhibitory rate (%) with respect to the oxazolone control group, i.e. the oxazolone-injected/compound-free group, was shown in the table 3.

Experiment [2] has as its system human peripheral blood neutrophils. Briefly: Human peripheral blood neutrophil adhesion system (adhesion to immobilized HUVEC, PMA-stimulated). The class given is cell-based. The following applies: concentration inhibiting by 50% the PMA-stimulated increase in number of adhered BCECF-AM labeled neutrophils on HUVEC immobilized plate. As to the method:
Evaluation of Compounds in Human Peripheral Blood Neutrophil Adhesion System
<Preparation of Human Peripheral Blood Neutrophils>
To a plastic centrifugation tube containing 100 units of heparin sodium (Shimizu Pharmaceutical) was added 25 ml of fresh blood sampled from a healthy human. After adding and mixing therewith 8 ml of physiological saline (Otsuka Pharmaceutical) containing 6% Dextran (Nacalai), the mixture was allowed to stand room temperature for 45 minutes for sedimentation of the erythrocytes. The resultant supernatant was transferred to another plastic centrifugation tube and combined with an equivalent volume of phosphate-buffered saline (hereinafter abbreviated as PBS; Sigma), and then centrifuged at 1600 rpm for 7 minutes at room temperature. The obtained hematocyte fraction was suspended in 4 ml of PBS, and the suspension was superposed on 4 ml of Ficoll-Paque™ PLUS (Amersham Biosciences). The resultant bilayer liquid was centrifuged at 2000 rpm for 30 minutes at room temperature, after which the supernatant was removed and the precipitate was suspended in 10 ml of PBS and centrifuged at 1200 rpm for 7 minutes, and the supernatant was removed. The resulting precipitate was suspended in 0.5 ml of PBS again, and then 10 ml of distilled water (Otsuka Pharmaceutical) was added, 0.5 ml of an aqueous solution containing 3 M NaCl was immediately added to restore isotonicity, the mixture was centrifuged at 1200 rpm for 7 minutes, and the obtained precipitate was suspended in PBS containing 1 mg/ml bovine serum albumin (hereinafter abbreviated as BSA; Sigma) again and stored in ice until being used for the experiment.
<Fluorescent Labeling of Human Peripheral Blood Neutrophils>
The obtained neutrophils were suspended in PBS containing 1 mg/ml BSA at 2×10^7 cells/ml. BCECF-AM (Dojin) was added to a final concentration of 5 μM, and the mixture was incubated at 37° C. for 45 minutes. It was then rinsed twice with PBS containing 1 mg/ml BSA by centrifugation, suspended again in PBS containing 1 mg/ml BSA at 5×10^7 cells/ml, and stored in ice until use.
<Preparation of HUVEC Immobilized Plate>
Human umbilical vein endothelial cells (hereinafter abbreviated as HUVEC) were suspended in MCDB131 medium (Chlorella Industries) containing 10% fetal calf serum and 30 μg/ml endothelial cell growth supplement (Becton Dickinson Bioscience). The suspension was added at 7.5×10^3 cells/well to a 96-well plate (Iwaki) immobilized with type I collagen, and cultured for 3 days in a CO2 incubator (Hirasawa). Upon confirming confluency of the cells, the supernatant was discarded, the plate was rinsed twice with PBS, and then PBS containing 0.1% glutaraldehyde (Kanto Kagaku) was added at 100 μl/well and the HUVECs were immobilized for 5 minutes. The supernatant was discarded and the plate was washed twice with PBS, and then PBS was added at 100 μl/well and the mixture was stored at 4° C. until use.
To 6.5 ml of RPMI-1640 medium (Sigma) containing 1 mg/ml of BSA were added 0.5 ml of a suspension of BCECF-AM labeled neutrophils at 5×10^7/ml stored in ice, which was mixed, and the mixture was added at 80 μl/well to a HUVEC immobilized plate. […] The supernatant was removed from the plate, which was then washed several times with RPMI-1640 at 100 μl/well, and then PBS containing 0.1% NP-40 (Calbiochem) was added thereto at 100 μl/well and the fluorescent intensity was measured with an ARVO™SX 1420 multi label counter (Wallac) to determine the number of adhered cells. […]

Regarding `CCCCN1CCN(c2ccc(N3CCC(OC)CC3)cc2C2=CCC(C(C)(C)C)CC2)CC1.Cl` (racemic) [Example 7, 1-Butyl-4-[2-(4-t-butylcyclohex-1-enyl)-4-(4-methoxypiperidin-1-yl)phenyl]piperazine hydrochloride], the IC50 in the experiment with Jurkat cells worked out at 2.5 µM; in experiment [2], 9.8 µM. The inhibition in vivo at 30 mg/kg in experiment [1] is 37%.

For the compound `CCCCN1CCN(c2ccccc2C2CC(C)(C)CC(C)(C)C2)CC1.Cl` [Example 8, 1-Butyl-4-[2-(3,3,5,5-tetramethylcyclohexyl)phenyl]piperazine hydrochloride], the IC50 in the experiment on Jurkat cells amounted to 2.2 µM; in experiment [2], 22.5 µM. Further, the inhibition in vivo at 30 mg/kg in experiment [1] turned out to be 22%.

In the case of `CCCCN1CCN(c2ccccc2C2CCCCC2)CC1.Cl` [Example 14, 1-Butyl-4-(2-cyclohexylphenyl)piperazine hydrochloride], the IC50 with Jurkat cells is 4.9 µM; in experiment [2], 19.7 µM. Also, the inhibition in vivo at 30 mg/kg in experiment [1] stood at 64%.
